Test results taken from ChEMBL document CHEMBL4715694, “Discovery of novel tetrahydroisoquinoline-containing pyrimidines as ALK inhibitors” (Bioorg Med Chem, 2016).

Legend:
in vivo [1] = details: rat, po, 10 mg/kg
in vitro [2] = details: rat, liver microsomes
in vivo [3] = details: rat, po, 10 mg/kg; remark: listed apart in the source
in vitro [4] = details: human, liver microsomes

Which results are given for `Cc1cc(Nc2ncc(Cl)c(Nc3ccccc3S(=O)(=O)C(C)C)n2)c(OC(C)C)cc1C1CCNCC1` [CERITINIB]?
Cmax (in vivo [1]): 90 ng/mL; remaining at 0.5 h, 1 µM (in vitro [2]): 98%; AUC (in vivo [3]): 1400 ng·h/mL; remaining at 0.5 h, 1 µM (in vitro [4]): 88%
